From patent publication EP0790996B1, “PYRIDAZINOQUINOLINE COMPOUNDS” (AstraZeneca AB, priority 1994, dated 1996)
Read-outs that look alike come from different tables or passages of the source.

Legend:
[1] = target: T1, glycine receptor of the NMDA receptor complex (Rattus norvegicus, UniProt P35439); experiment: [3H]-glycine binding assay (Test A); parameters: species or system Sprague-Dawley rats; details: 20 nanomolar [3H]-glycine, rat synaptic membranes, pH 7.1, 30 minutes at 4 °C
T1 construct: Freshly dissected cortices and hippocampi are homogenized in 0.32 M sucrose; from tissue; host or cells: rat cerebral cortex and hippocampus synaptic membranes
Method: In the [^3H]-glycine binding assay, neuronal synaptic membranes are prepared from adult (about 250 g) male Sprague-Dawley rats. Freshly dissected cortices and hippocampi are homogenized in 0.32 M sucrose (110 mg/mL). Synaptosomes are isolated by centrifugation (1000 xg, 10 min), the supernatant is pelleted (20,000 xg, 20 min) and resuspended in double-distilled water. The suspension was centrifuged for 20 minutes at 8,000 xg. The resulting […] and buffy coat are washed twice (48,000 xg, 10 mins, resuspension in double-deionized water). The final pellet is quickly frozen (dry ice/ethanol bath) under double-deionized water and stored at -70 °C.
On the day of the experiment, thawed synaptic membranes are homogenized with a Brinkmann Polytron (tm, Brinkmann Instruments, Westbury, N.Y.) tissue homogenizer in 50 millimolar tris(hydroxymethyl)aminomethane citrate, pH 7.1. The membranes are incubated with 0.04% Sufact-AMPS X100 (tm, Pierce, Rockford, IL) in buffer for 20 minutes at 37 °C and washed six times by centrifugation (48,000 xg, 10 min) and resuspended in buffer. The final pellet is homogenized at 200 mg wet weight/mL of the buffer for the binding assay.
For [^3H]-glycine binding at the N-methyl-D-aspartate receptor, 20 nanomolar [^3H]-glycine (40-60 Ci/mmol, New England Nuclear, Boston, MA) is incubated with the membranes suspended in 50 millimolar tris (hydroxymethyl)aminomethane citrate, pH 7.1 for 30 minutes at 4 °C. Glycine, 1 millimolar, is used to define the nonspecific binding. Bound [^3H]-glycine is isolated from free using a Brandel (Biomedical Research and Development Laboratories, Gaithersburg, MD) cell harvester for vacuum filtration over glass fiber filters (Whatman GF/B from Brandel, Gaithersburg, MD) presoaked in 0.025% polyethylenimine. The samples retained on the glass fiber filters are rinsed 3 times with a total of 2.5 mL ice cold buffer. Radioactivity is estimated by liquid scintillation counting. IC50 values are obtained from a least-squares regression of a logit-log transformation of the data. […]

[2] = tested on: NMDA-induced excitatory response of red nucleus cells; experiment: Red nucleus test (Test B); assay type: in vivo, Rats; details: Rattus norvegicus
Method: The purpose of this test is to determine the effects of intravenously administered glycine antagonists on the NMDA-induced excitatory response of red nucleus cells.
The procedure for the red nucleus test is as follows. Rats are anesthetized with chloral hydrate (400 mg/kg ip) and the femoral vein is catheterized for iv drug administration. Five-barrel micropipettes are stereotaxically positioned in the red nucleus. Typically, three to four of the five barrels are filled as follows: the recording barrel with 2M potassium citrate, the current balancing barrel with 4M NaCl, the drug barrel with 25mM NMDA, and another drug barrel with 2.5mM quisqualic acid (QA is only used in selectivity studies). NMDA is iontophoretically applied with an ejection current that is adjusted depending on the sensitivity of each individual red nucleus cell. The NMDA is cycled on and off (usually 30 - 60 sec. on and 60 - 120 sec. off) and the firing rate of the cell during each period is recorded. Once the baseline firing rate of the cell has been established, the test drug is administered iv. The effect of the drug on the NMDA-induced excitatory response of the red nucleus cell can be both qualitatively and quantitatively evaluated from the recordings and the raw data accumulated.

Male SHR rats = experiment: Rat Middle Cerebral Artery test (Test C), permanent MCA occlusion; assay type: in vivo; details: 24 hours after MCA/common carotid artery occlusion
Method: Male SHR rats weighing 280-320 g are used for these studies. The method used for permanent middle cerebral artery (MCA) occlusion is as described by Brint et al (1988). […] Following occlusions, drugs are administered intravenously via jugular catheter. Twenty-four hours after MCA/common carotid artery occlusion, the animals are sacrificed and their brains quickly removed. Coronal sections of 1 mm thickness are cut using a vibratome and stained with 2,3,5, triphenyl, 2H-tetrazolium chloride (TTC) dye. Following staining, necrotic tissue is readily distinguished from the intact brain and the area of infarcted cortex can be traced on an image analyzer. The infarct volume for each section is quantified with an image analyzer, and the total infarct volume is calculated with a program that summed all interval volume. See S. Brint et al. J. Cerebral Blood Flow 8:474-485 (1988). The statistical analysis of the difference between the volume of ischemic damage in the vehicle control and drug-treated animals is analyzed by student's-t-test. […] For example, the compound of example 145 at an I.V. dose of 10 mgs/kg/hr caused an infarct % volume change of -42% while a 5.0 mg/kg/hr I.V. dosage caused a -8% reduction.

O=c1c2c(c(O)nn1-c1ccccc1)Nc1cc(Cl)ccc1C2 [Example 147, 7-chloro-4-hydroxy-2-phenyl-5,10-dihydro-2H-pyridazino [4,5-b]quinolin-1-one]
IC50 [1]: 17 nM

Cc1ccc(-n2nc(O)c3c(c2=O)Cc2ccc(Cl)cc2N3)cc1 [Example 145, 7-Chloro-4-hydroxy-5,10-dihydro-2-(4'-methylphenyl)pyridazino[4,5-b]-quinoline-1-one]
IC50 [1]: 45 nM
ED50 ([2]; as the meglumine salt (N=5), administered iv, read-out: ID50 (the source's name)): 6.54 mg/kg
infarct % volume change (Male SHR rats; 5.0 mg/kg/hr I.V. dosage): -8%
infarct % volume change (Male SHR rats; I.V. dose of 10 mgs/kg/hr): -42%

C/C(=C\C(N)C(=O)O)CP(=O)(O)O (centres unmarked) [CGP 37849]
ED50 ([2]; iv, read-out: ID50): 1.7 mg/kg

COc1ccc(-n2nc(O)c3c(c2=O)Cc2ccc(Cl)cc2N3)cc1 [Example 148, 7-chloro-4-hydoxy-2-(4'-methoxyphenyl)-5,10-dihydro-2H-pyridazino[4,5-b]quinoline-1-one]
IC50 [1]: 440 nM

NC1CCN(O)C1=O (racemic) [HA-966]
ED50 ([2]; reference agents, intravenous, anesthetized rats, read-out: ID50 (the source's name)): 7.9 mg/kg
